Publication PMC5458052 (Nature Communications, 2017)
“Also recorded” adds a separate entry of the source.

What was measured:
[1] = tested on: P. falciparum strain 3D7^0087/N9; experiment: Humanized SCID mouse model of P. falciparum; assay type: in vivo, Plasmodium falciparum
CYP2C9 = CYP2C9 (Homo sapiens, UniProt P11712); experiment: Cytochrome P450 inhibition CYP2C9
CYP3A4 = CYP3A4 (Homo sapiens, UniProt P08684); experiment: biochemical
[2] = tested on: major human CYP450s (all isoforms together); experiment: in vitro
in vivo = conditions: rat, iv, 1 mg/kg
[3] = Metabolic stability and metabolite profile in human liver microsomes; conditions: for Microsome-Predicted EH: human liver microsomes
[4] = Rat PK, compartmental analysis
Sigma 2 receptors = target: T1, Sigma 2 receptors (Homo sapiens, UniProt Q5BJF2); experiment: CEREP radioligand binding screen, Sigma 2
T1 construct: CEREP
T1 sequence (Q5BJF2 whole entry): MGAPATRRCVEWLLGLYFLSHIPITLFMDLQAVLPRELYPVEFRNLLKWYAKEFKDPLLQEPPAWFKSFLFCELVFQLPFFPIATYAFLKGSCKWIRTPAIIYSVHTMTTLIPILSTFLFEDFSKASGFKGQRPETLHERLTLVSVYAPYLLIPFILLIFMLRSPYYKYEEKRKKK

in vitro = conditions: human, microsomes

CYP3A4, sequence (P08684 whole entry, canonical isoform): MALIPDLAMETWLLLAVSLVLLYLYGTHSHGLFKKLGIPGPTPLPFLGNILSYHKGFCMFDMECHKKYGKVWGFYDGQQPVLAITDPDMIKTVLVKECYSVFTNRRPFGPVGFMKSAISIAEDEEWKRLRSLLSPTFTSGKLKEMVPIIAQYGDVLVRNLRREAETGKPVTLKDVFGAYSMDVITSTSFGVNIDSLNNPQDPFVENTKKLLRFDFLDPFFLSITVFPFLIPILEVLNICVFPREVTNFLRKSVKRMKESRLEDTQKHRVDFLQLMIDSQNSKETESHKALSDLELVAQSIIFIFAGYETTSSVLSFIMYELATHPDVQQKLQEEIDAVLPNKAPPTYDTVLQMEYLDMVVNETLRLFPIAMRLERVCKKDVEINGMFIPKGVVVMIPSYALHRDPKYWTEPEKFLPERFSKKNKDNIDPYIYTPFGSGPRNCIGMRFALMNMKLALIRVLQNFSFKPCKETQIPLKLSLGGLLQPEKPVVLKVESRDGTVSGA
CYP2C9, sequence (P11712 whole entry): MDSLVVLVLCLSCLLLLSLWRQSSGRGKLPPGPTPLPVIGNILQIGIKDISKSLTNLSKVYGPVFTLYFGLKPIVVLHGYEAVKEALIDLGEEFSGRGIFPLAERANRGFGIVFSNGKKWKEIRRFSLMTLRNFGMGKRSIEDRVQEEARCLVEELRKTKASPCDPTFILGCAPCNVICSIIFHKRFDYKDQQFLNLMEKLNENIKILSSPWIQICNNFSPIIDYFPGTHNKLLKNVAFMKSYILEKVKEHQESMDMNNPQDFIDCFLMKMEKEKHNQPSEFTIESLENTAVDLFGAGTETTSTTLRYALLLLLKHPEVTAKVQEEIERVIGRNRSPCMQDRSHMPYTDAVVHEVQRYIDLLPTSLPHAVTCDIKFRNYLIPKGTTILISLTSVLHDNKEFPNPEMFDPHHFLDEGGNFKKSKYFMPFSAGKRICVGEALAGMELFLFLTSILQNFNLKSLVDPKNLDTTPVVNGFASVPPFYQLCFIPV

In the case of `FC1CCN(CCOc2ccc(C3CCC4(CC3)OOC3(OO4)C4CC5CC(C4)CC3C5)cc2)CC1` (centres unmarked) [Compound E209], the “AUC ED90” value ([1]; single oral dose) is reported as 1.2 µg·h/mL, the parasite clearance ([1]; single oral dose 30 mg kg^−1) is reported as “Complete parasite clearance; also recorded: maximum parasite clearance” and the ED90 ([1]; single oral dose, calculated) is reported as 11.6 mg/kg. The IC50 (CYP2C9) was over 20 µM, the IC50 (CYP3A4) was over 20 µM and the IC50 [2] was over 20 µM. For the same compound, the half-life (in vivo) was 4 h, the “% Substrate Consumed” value ([3]; human liver microsomes with NADPH, 60 minutes) was 45% and the “Microsome-Predicted EH” value ([3]; substrate 1 µM) was 0.50. For the same compound, the “Microsome-Predicted EH” value ([3]; substrate 5 µM) was 0.48, the half-life at 1 µM ([3]; human, liver microsomes) was 1.13 h and the half-life at 5 µM ([3]; human, liver microsomes) was 1.27 h. The microsomal CLint at 1 µM ([3]; human, liver microsomes) was 25 µL/min/mg, the “Absorption rate constant Ka” value ([4]; PO 9 mg kg^−1) was 0.31 h⁻¹ and the clearance ([4]; male, Sprague-Dawley, plasma, other: intravenous and oral, fitted together) was 1.6 L/h/kg. For the same compound, the IC50 (Sigma 2 receptors) was about 0.2 µM and the microsomal CLint (in vitro) was 23 µL/min/mg.
